From US12565475B2, “Small molecule compound inhibiting signal transmission path of TLR7 and TLR9 and use thereof” (AJOU UNIVERSITY INDUSTRY-ACADEMIC COOPERATION FOUNDATION, priority 2019, dated 2026)
pIC50: −log10 of the molar value. Entries after “also recorded” stand apart in the source; their conditions may differ.

Legend:
[1] = target: T1, TLR7 (Mus musculus, UniProt P58681); assay: TLR7-mediated TNF-α secretion (imiquimod stimulation), ELISA; format: cell-based, murine
T1 construct: endogenous in cells; host or cells: RAW 264.7
T1 sequence (P58681 27-1050): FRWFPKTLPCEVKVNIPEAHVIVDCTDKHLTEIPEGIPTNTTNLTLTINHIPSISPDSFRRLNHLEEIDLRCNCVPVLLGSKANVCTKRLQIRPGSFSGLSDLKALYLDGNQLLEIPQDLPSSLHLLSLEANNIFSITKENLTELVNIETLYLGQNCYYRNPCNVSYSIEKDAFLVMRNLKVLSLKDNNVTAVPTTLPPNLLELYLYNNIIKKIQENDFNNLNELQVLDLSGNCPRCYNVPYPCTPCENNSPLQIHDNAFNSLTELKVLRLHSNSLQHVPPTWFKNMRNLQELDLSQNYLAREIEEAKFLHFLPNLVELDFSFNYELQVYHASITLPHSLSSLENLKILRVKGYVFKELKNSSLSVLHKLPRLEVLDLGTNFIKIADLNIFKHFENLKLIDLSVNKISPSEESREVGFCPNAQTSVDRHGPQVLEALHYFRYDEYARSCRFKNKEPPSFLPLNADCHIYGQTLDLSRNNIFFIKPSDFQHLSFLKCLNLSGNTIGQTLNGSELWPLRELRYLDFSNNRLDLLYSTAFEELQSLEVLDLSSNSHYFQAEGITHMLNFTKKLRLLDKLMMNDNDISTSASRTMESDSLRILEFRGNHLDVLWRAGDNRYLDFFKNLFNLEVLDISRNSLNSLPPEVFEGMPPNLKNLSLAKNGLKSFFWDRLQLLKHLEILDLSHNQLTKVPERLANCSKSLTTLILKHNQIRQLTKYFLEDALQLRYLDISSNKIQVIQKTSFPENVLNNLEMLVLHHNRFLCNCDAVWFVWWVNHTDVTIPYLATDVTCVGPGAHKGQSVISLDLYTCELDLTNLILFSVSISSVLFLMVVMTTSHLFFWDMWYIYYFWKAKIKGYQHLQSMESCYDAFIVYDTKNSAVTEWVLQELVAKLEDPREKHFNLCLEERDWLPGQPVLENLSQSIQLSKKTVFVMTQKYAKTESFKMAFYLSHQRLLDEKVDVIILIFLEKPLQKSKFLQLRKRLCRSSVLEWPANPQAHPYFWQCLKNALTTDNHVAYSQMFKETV
Protocol: (§1) Agonists specific to TLR1/TLR2 (Pam3CSK4), TLR2/TLR6 (FSL-1), TLR3 (Poly I:C), TLR7 (imiquimod), and TLR8 (TL8-506) were purchased from InvivoGen Ltd. (Hong-Kong, China), and a TLR4-specific agonist (LPS from E. coli O111:B4) was purchased from Sigma-Aldrich, Inc. For TLR9-specific stimulation, class C CpG-ODN (ODN2395, 5′-TCGTCGTTTTCGGCGCGCGCCG-3′) having full phosphorothioate backbone modification was synthesized (Bioneer, Inc., Daejeon, Korea). All TLR agonists were dissolved in deionized water and applied to a culture media for TLR activation. The cells were treated with test compounds or a control medium for 1 hour, and then stimulated with a TLR agonist for 4 hours, or 24 hours in the case of poly(I:C), and the cytokine secretion was monitored.
(§2) RAW 264.7 or differentiated THP-1 cell lines were seeded onto a 96-well culture plate at a density of 2×10^4 cells/well. The cells were treated with test compounds for 1 hour followed by the stimulation with TLR agonists for 4 hours. The supernatant was transferred to pre-coated assay plates, and the secretion levels of mouse and human TNF-α were measured by respective ELISA kits (Invitrogen, Carlsbad, CA, USA). All experiments were performed according to the manufacturer's instructions. Absorbance was measured by a microplate reader spectrophotometer (Molecular Devices, Inc., San Jose, CA, USA), and data was interpolated from a standard curve using SoftMax Pro 5.3 software (Molecular Devices, Inc.).
In order to evaluate the antagonistic effect of each compound on TLR7/TLR9 through ELISA (enzyme-linked immunosorbent assay), RAW 264.7 cells were pretreated with the eight compounds followed by the stimulation with a TLR7-specific agonist (imiquimod, 3.61 μM) or with a TLR9-specific agonist (ODN2395, 0.5 μM). […] Since the two ligands had no agonistic effect per se (FIG. 3B), the increased cytokine production may be due to cell activation (or non-specific cellular stress) by co-treatment. Consequently, TIC10 was selected as the most suitable lead for further optimization to improve the inhibitory potency against both TLR7 and TLR9.

[2] = target: T2, TLR3 (Mus musculus, UniProt Q99MB1); assay: TLR3-mediated TNF-α secretion (poly I:C), ELISA; format: cell-based, murine; settings: RAW 264.7, 10 or 20 μM, poly I:C 24 hours
T2 construct: endogenous in cells; host or cells: RAW 264.7
T2 sequence (Q99MB1 26-905): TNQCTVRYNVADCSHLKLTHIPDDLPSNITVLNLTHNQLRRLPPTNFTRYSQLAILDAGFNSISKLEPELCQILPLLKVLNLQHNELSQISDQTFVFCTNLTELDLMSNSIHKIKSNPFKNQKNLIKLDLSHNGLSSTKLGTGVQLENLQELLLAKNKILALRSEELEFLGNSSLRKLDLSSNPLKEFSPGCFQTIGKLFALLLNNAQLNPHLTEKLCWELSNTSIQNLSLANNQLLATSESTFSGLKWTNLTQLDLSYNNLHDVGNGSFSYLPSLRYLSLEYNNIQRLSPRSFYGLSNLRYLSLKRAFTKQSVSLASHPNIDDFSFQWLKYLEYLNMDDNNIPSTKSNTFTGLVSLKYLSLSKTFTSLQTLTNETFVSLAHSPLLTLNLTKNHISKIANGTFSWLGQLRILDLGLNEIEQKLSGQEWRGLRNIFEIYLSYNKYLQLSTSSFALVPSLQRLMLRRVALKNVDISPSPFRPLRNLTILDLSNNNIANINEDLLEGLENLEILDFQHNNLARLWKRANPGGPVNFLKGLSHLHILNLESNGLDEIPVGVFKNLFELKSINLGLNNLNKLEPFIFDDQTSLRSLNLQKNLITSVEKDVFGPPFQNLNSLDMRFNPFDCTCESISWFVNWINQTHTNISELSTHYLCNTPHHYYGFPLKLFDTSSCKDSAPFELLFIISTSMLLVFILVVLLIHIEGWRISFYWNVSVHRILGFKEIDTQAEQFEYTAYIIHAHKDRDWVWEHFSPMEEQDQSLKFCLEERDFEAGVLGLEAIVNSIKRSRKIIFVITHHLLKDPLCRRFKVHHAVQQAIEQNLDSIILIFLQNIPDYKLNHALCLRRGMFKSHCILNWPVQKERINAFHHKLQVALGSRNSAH
Protocol: as §1
as §2, with “All experiments were performed according to the manufacturer's instructions.” left out, “Inc.). […]” for “Inc.).”

COc1ccc(CNc2ncc(-c3ccc4c(c3)OCO4)n2C)c(OC)c1 [TIC10-7, 5-(2H-1,3-benzodioxol-5-yl)-N-[(2,4-dimethoxyphenyl)methyl]-1-methyl-1H-imidazol-2-amine]
TLR7-mediated TNF-α secretion ([1]; RAW 264.7, 10 or 20 μM, imiquimod (receptor specificity, FIG. 6)): moderately reduced
inhibitory efficacy on TLR7-mediated TNF-α secretion ([1]; RAW 264.7, 10 or 50 μM, imiquimod (FIG. 4B)): improved inhibitory efficacy compared to TIC10; also recorded: to a greater extent as compared to the other derivatives
pIC50 ([1]; RAW 264.7, imiquimod (FIG. 4D)): 5.17
TLR3-mediated TNF-α secretion [2]: moderately reduced
